For assay [1], the system named is SHR with endothelial dysfunction. As to the kind of experiment: Endothelial dysfunction test: SHR treated with the NO synthesis inhibitor L-NAME for 12 weeks. The format is in vivo, rat. As to conditions: for proteinuria / kidney lesions: low doses; for proteinuria / survival rates: drugs in drinking fluid; for kidney lesions: kidney sections; for survival rates: low, non-blood pressure reducing doses. As for the experimental part: Male 20-24 week-old SHR, purchased from RCC Ldt (Fullingsdorf, Switzerland), are maintained in a temperature- and light-controlled room with free access to rat chow (Nafag 9331, Gossau, Switzerland) and tap water. The experiment is performed in accordance with the NIH guidelines and approved by the Canton Veterinary office (Bew 161, Kantonales Veterinäramt, Liestal, Switzerland). All rats are treated with the NO synthesis inhibitor L-NAME (Sigma Chemicals) administered in drinking water (50 mg/l) for 12 weeks. The average daily dose of L-NAME calculated from the water consumed was 2.5 mg/kg/d (range 2.1-2.7).
The rats can be divided into 5 groups: group 1, control (n=40); Group 2, the compound of formula (I) in form of the hemi-fumarate (ren1; n=40); Group 3, enalapril (ena1; n=30); Group 4, a combination (ena1ren1) of enalapril and the compound of formula (I) in form of the hemi-fumarate; (n=30) and Group 5, the compound of formula (I) in form of the hemi-fumarate (ren2—higher dose; n=30). The drugs are administered in drinking fluid.
Body weight is measured every week. Systolic blood pressure and heart rate are recorded by tail cuff plethysmography 3 and 2 weeks before starting the study and at 2 weeks after drug administration. Urine is collected over a 24 hour period from rats kept in individual (metabolic) cages the week before starting treatment and at weeks 4 and 12 for volume measurement and protein, creatinine, sodium and potassium determination using standard laboratory methods. At the same time points, blood samples are withdrawn from the retro-orbital plexus (maximum 1 ml) for creatinine, Na^+ and K^+ assays.
Ten rats from each group are sacrificed at 4 weeks for collection of kidney and heart for morphological analysis. The remaining rats are sacrificed at 12 weeks. Cardiac and kidney weight is recorded. Terminal blood sampling is performed in 5% EDTA at 4 (morphometry study) and 12 (end of the study) weeks for aldosterone, determination by radioimmunoassay using a DPC coat-a-count aldosterone-RIA kit (Bühlmann, Switzerland).
All data are expressed as mean±SEM. Statistical analysis is performed using a one-way ANOVA, followed by a Duncan's multiple range test and a Newman-Keuls test, 7 for comparison between the different groups. Results with a probability value of less than 0.05 are deemed statistically significant.

The test system of the next assay is normotensive rats. The conditions noted are these: Ang II at 1 mg/kg, after treatment; cited from earlier work.

“Also recorded” adds a separate entry of the source.

For `COCCCOc1cc(C[C@@H](C[C@H](N)[C@@H](O)C[C@H](C(=O)NCC(C)(C)C(N)=O)C(C)C)C(C)C)ccc1OC` [2(S),4(S),5(S),7(S)—N-(3-amino-2,2-dimethyl-3-oxopropyl)-2,7-di(1-methylethyl)-4-hydroxy-5-amino-8-[4-methoxy-3-(3-methoxy-propoxy)phenyl]-octanamide], in assay [1], the proteinuria entry was “no decrease in proteinuria”, the kidney lesions result was “no reduction of kidney lesions” and the survival rates result is “significant improvements in survival rates”. For the same molecule, the survival rates result in assay [1] (listed as renin inhibitor of formula (I)) was “improved survival”. In addition, in the assay on normotensive rats, the “pressor effect of Ang II” value is “can be reducted”.
As to `CCOC(=O)[C@H](CCc1ccccc1)N[C@@H](C)C(=O)N1CCC[C@H]1C(=O)O` [enalapril, reference compound], in assay [1], the proteinuria entry was “no decrease in proteinuria”, the kidney lesions result was “no reduction of kidney lesions” and the survival rates entry is given as “improved survival; also recorded: significant improvements in survival rates”.

(Values after patent US9023894B2, “Synergistic combinations comprising a renin inhibitor for cardiovascular diseases” (priority 2000, dated 2015).)
